Test in all cases: Determination of MIC values (BHI broth, 96 well microtiter plate)
What all share (type): cell-based

Experiment [1] deals with Streptococcus pneumoniae. To be noted: Streptococcus pneumoniae, BHI broth, read-out: MIC S. pneu. Put shortly:
(§1)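 Compounds were serially diluted 1:2 in DMSO and added 1:100 to BHI broth to final 25–0.39 µg/mL plus a no-compound control. Wells received an inoculum of 10^5 to 10^6 cells/mL from a 0.5 McFarland culture and were incubated overnight (about 16 hours) at 37° C under 7-10% CO2. MIC is the lowest concentration without visible growth.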

Experiment [2] relates to methicillin-resistant Staphylococcus aureus (MRSA). To be noted: Staphylococcus aureus, MRSA, BHI broth, read-out: MIC MRSA. A digest of the protocol: as §1
The test system of experiment [3] is vancomycin-resistant Enterococcus spp. (VRE). The following applies: Enterococcus, VRE, BHI broth, read-out: MIC VREF. A digest of the protocol:
as §1

Where [4] appears, read: 16 h, 37° C., overnight (about 16 hours).

Read-outs that look alike come from different tables or passages of the source.

A word on the MIC: it is the lowest concentration that inhibits growth of the organism. For the compound `NCC1CCCC(CNC(=O)c2cc(-c3c[nH]c4ccc(Br)cc34)nc3cc(Cl)c(I)cc23)C1` (stereo not shown) [Example 245], the MIC was under 7 µg/mL in experiment [1] (S. pneu, overnight 37° C.); under 7 µg/mL in experiment [2] (overnight 37° C.); under 7 µg/mL in experiment [3] (VREF, overnight 37° C.).
`NCc1ccc(CNC(=O)c2cc(-c3c[nH]c4ccc(Cl)cc34)nc3c(Br)cccc23)cc1` [Example 231]: the MIC in experiment [1] (S. pneu, overnight 37° C.) was under 7 µg/mL; in experiment [2] (overnight 37° C.), under 7 µg/mL; in experiment [3] (VREF, overnight 37° C.) it was under 7 µg/mL.
As to `NCCNC(=O)c1cc(-c2c[nH]c3ccc(Br)cc23)nc2ccc(Br)cc12` [Example 285], the MIC was under 7 µg/mL in experiment [1] (S. pneu, overnight 37° C.); under 7 µg/mL in experiment [2] (overnight 37° C.); under 7 µg/mL in experiment [3] (VREF, overnight 37° C.).
Consider `Fc1cccc2[nH]cc(-c3cc(Cl)c4ccccc4n3)c12` [Example 338], for which the MIC in experiment [1] (S. pneu, overnight 37° C.) was under 7 µg/mL; in experiment [2] (overnight 37° C.), under 25 µg/mL; in experiment [3] (VREF, overnight 37° C.), over 25 µg/mL.
On to `NCc1cc(-c2c[nH]c3ccc(Br)cc23)nc2cc(Cl)ccc12` [Example 511], for which the MIC in experiment [1] (37° C., about 16 hours) was under 7 µg/mL; in experiment [2] (16 h, 37° C., about 16 hours) it was under 7 µg/mL; in experiment [3] (16 h, 37° C., about 16 hours), under 7 µg/mL.
With `Cc1cccc2ccc(-c3c[nH]c4cc(F)ccc34)nc12` [Example 423], the MIC in experiment [1] (37° C., about 16 hours) is over 25 µg/mL; in experiment [2] (16 h, 37° C., about 16 hours), over 25 µg/mL; in experiment [3] (16 h, 37° C., about 16 hours), over 25 µg/mL.
Regarding `NCc1ccc(CNC(=O)c2cc(-c3c[nH]c4ccc(Br)cc34)nc3c(C#CCNCCc4ccc(Cl)cc4)cccc23)cc1` [Example 301], the MIC was under 25 µg/mL in experiment [1] (S. pneu, overnight 37° C.); under 7 µg/mL in experiment [2] (overnight 37° C.); under 25 µg/mL in experiment [3] (VREF, overnight 37° C.).
Regarding `Cc1cccc2ccc(-c3c[nH]c4c(C)cccc34)nc12` [Example 471], the MIC in experiment [1] (37° C., about 16 hours) was under 7 µg/mL; in experiment [3] (16 h, 37° C., about 16 hours), over 25 µg/mL.
As for `Cn1cc(-c2cc(C(=O)NCc3ccc(CN)cc3)c3cc(I)ccc3n2)c2cc(Br)ccc21` [Example 299], the MIC in experiment [1] (S. pneu, overnight 37° C.) was under 7 µg/mL.
`NC(=O)C(Cc1ccc([N+](=O)[O-])cc1)NC(=O)c1cc(-c2c[nH]c3ccc(Cl)cc23)nc2ccccc12` (stereo not shown) [Example 148]: the values for the MIC in experiment [2] (setting [4]) and in experiment [3] (setting [4]) were under 7 µg/mL and under 25 µg/mL, respectively.
On the same counts, the results for `O=C(NCCCCC1CCCNC1)c1cc(-c2c[nH]c3ccc(Br)cc23)nc2ccccc12` (stereo not shown) [Example 49] are under 7 µg/mL and under 7 µg/mL.
On the same counts, the results for `O=C(c1cc(-c2c[nH]c3ccc(Br)cc23)nc2ccc(Br)cc12)N1CCCNCC1` [Example 126] are under 7 µg/mL and under 7 µg/mL.
Consider `Cc1[nH]c2ccccc2c1-c1ccc2ccccc2n1` [Example 187], for which the MIC in experiment [2] (setting [4]) and in experiment [3] (setting [4]) was over 25 µg/mL throughout.
In the case of `O=C(O)c1cc(-c2c[nH]c3ccc(Br)cc23)nc2ccc(C#CCN3CCNCC3)cc12` [Example 207], the minimum inhibitory concentration (MIC) in experiment [2] (overnight 37° C.) was over 25 µg/mL; in experiment [3] (VREF, overnight 37° C.), under 25 µg/mL.
`O=C(c1cc(-c2c[nH]c3ccc(Br)cc23)nc2ccc(I)cc12)N1CCNCC1` [Example 54]: the MIC in experiment [2] (setting [4]) and in experiment [3] (setting [4]) was under 7 µg/mL in each case.
Regarding `NCc1ccc(CNC(=O)c2cc(-c3csc4ccccc34)nc3ccccc23)cc1` [Example 52], the MIC in experiment [2] (setting [4]) and in experiment [3] (setting [4]) was under 25 µg/mL throughout.
Take `COc1ccc(NC(=O)N2CCN(C(=O)c3cc(-c4c[nH]c5ccc(Br)cc45)nc4ccccc34)CC2)c(OC)c1` [Example 63]: the MIC in experiment [2] (setting [4]) and in experiment [3] (setting [4]) was over 25 µg/mL each time.
Regarding `O=C1c2ccccc2C(=O)N1CCCCn1cc(-c2ccc3cc(Cl)ccc3n2)c2ccc(F)cc21` [Example 267], the MIC in experiment [2] (overnight 37° C.) is over 25 µg/mL; in experiment [3] (VREF, overnight 37° C.), over 25 µg/mL.
With `NCc1ccc(CNC(=O)c2cc(-c3c[nH]c4ccc(F)cc34)nc3ccccc23)cc1` [Example 15], the MIC in experiment [2] (setting [4]) is under 25 µg/mL; in experiment [3] (setting [4]), over 25 µg/mL.
For `Cc1ccc2[nH]cc(-c3ccc4ccccc4n3)c2c1` [Example 188], the MIC in experiment [2] (setting [4]) and in experiment [3] (setting [4]) was over 25 µg/mL each time.
Take `Cc1cc(Cl)cc2c(C(=O)NCc3ccc(CN)cc3)cc(-c3c[nH]c4ccc(Br)cc34)nc12` [Example 56]: the MIC in experiment [2] (setting [4]) and in experiment [3] (setting [4]) was under 25 µg/mL throughout.
Take `NCc1ccc(CNC(=O)c2cc(-c3c[nH]c4ccc(Br)cc34)nc3cc(Cl)c(C#CCN4CCCCC4)cc23)cc1` [Example 268]: the MIC in experiment [2] (overnight 37° C.) was under 7 µg/mL; in experiment [3] (VREF, overnight 37° C.), under 7 µg/mL.
For the compound `COC(=O)C(=O)N1CCN(C(=O)c2cc(-c3c[nH]c4ccc(Br)cc34)nc3ccccc23)CC1` [Example 29], the MIC in experiment [2] (setting [4]) and in experiment [3] (setting [4]) was under 25 µg/mL in each case.
Turning to `O=C(Nc1ccc(C(F)(F)F)cc1)N1CCN(C(=O)c2cc(-c3c[nH]c4ccc(Br)cc34)nc3ccccc23)CC1` [Example 65], the figures for the MIC in experiment [2] (setting [4]) and in experiment [3] (setting [4]) were under 25 µg/mL and under 7 µg/mL, respectively.
On the same counts, the results for `O=C(NCc1ccc(CNC(=O)c2cc(-c3c[nH]c4ccc(Br)cc34)nc3ccccc23)cc1)Nc1ccccc1` [Example 40] are over 25 µg/mL and over 25 µg/mL.
On the same counts, the results for `O=C(c1cc(C23CC4CC(CC(C4)C2)C3)nc2ccccc12)N1CCNCC1` [Example 25] are over 25 µg/mL and over 25 µg/mL.
On the same counts, the results for `NCc1ccc(CNC(=O)c2cc(-c3c[nH]c4ccc(Br)cc34)nc3ccc(Br)cc23)cc1` [Example 120] are under 7 µg/mL and under 7 µg/mL.
Regarding `NC(=O)C1CCCN(C(=O)c2cc(-c3c[nH]c4ccc(Br)cc34)nc3ccccc23)C1` (stereo not shown) [Example 46], the MIC in experiment [2] (setting [4]) and in experiment [3] (setting [4]) was under 25 µg/mL in each case.
Regarding `CNCCC(C)N(C)C(=O)c1cc(-c2c[nH]c3ccc(Br)cc23)nc2ccccc12` (stereo not shown) [Example 33], the MIC in experiment [2] (setting [4]) and in experiment [3] (setting [4]) was under 7 µg/mL throughout.
As for `O=C(c1cc(-c2c[nH]c3ccc(Br)cc23)nc2ccccc12)N1CCN(Cc2ccccc2)CC1` [Example 45], the MIC in experiment [2] (setting [4]) and in experiment [3] (setting [4]) was over 25 µg/mL each time.
`NCCCCCCNC(=O)c1cc(-c2c[nH]c3ccc(Br)cc23)nc2ccccc12` [Example 59]: the MIC in experiment [2] (setting [4]) and in experiment [3] (setting [4]) was under 7 µg/mL each time.
For `NCc1cccc(CNC(=O)c2cc(-c3c[nH]c4ccc(Br)cc34)nc3ccccc23)c1` [compound 4], the MIC in experiment [2] (setting [4]) was under 25 µg/mL; in experiment [3] (setting [4]), under 7 µg/mL.
On the same counts, the results for `O=C(Nc1ccccc1C(F)(F)F)N1CCN(C(=O)c2cc(-c3c[nH]c4ccc(Br)cc34)nc3ccccc23)CC1` [Example 64] are over 25 µg/mL and over 25 µg/mL.
Turning to `NCCCCCNC(=O)c1cc(-c2c[nH]c3ccc(Br)cc23)nc2ccccc12` [Example 41], the MIC in experiment [2] (setting [4]) and in experiment [3] (setting [4]) was under 25 µg/mL in each case.
`NCc1ccc(CNC(=O)c2cc(-c3c[nH]c4cc(F)ccc34)nc3ccccc23)cc1` [Example 80]: the MIC in experiment [2] (setting [4]) and in experiment [3] (setting [4]) was under 25 µg/mL throughout.
As to `Brc1ccc2[nH]cc(-c3cc(CN4CCNCC4)c4ccccc4n3)c2c1` [Example 28], the MIC in experiment [2] (setting [4]) and in experiment [3] (setting [4]) was under 25 µg/mL each time.
Consider `NCc1ccc(CNC(=O)c2cc(-c3c[nH]c4ccc(Cl)cc34)nc3ccccc23)cc1` [Example 16], for which the MIC is under 7 µg/mL in experiment [2] (setting [4]) and under 25 µg/mL in experiment [3] (setting [4]).
On the same counts, the results for `NC(=O)C(Cc1ccc([N+](=O)[O-])cc1)NC(=O)c1cc(-c2c[nH]c3ccc(Br)cc23)nc2ccccc12` (stereo not shown) [Example 149] are under 7 µg/mL and over 25 µg/mL.
On the same counts, the results for `NCc1ccc(CNC(=O)c2cc(-c3c[nH]c4cc(Cl)ccc34)nc3ccccc23)cc1` [Example 20] are under 25 µg/mL and under 25 µg/mL.
On the same counts, the results for `NCc1ccc(CNC(=O)c2ccc3nc(-c4c[nH]c5ccc(Br)cc45)ccc3c2)cc1` [compound 6] are over 25 µg/mL and over 25 µg/mL.
For the compound `O=C(NCc1nc2ccccc2[nH]1)c1cc(-c2c[nH]c3ccc(Br)cc23)nc2ccccc12` [Example 38], the MIC in experiment [2] (setting [4]) is under 7 µg/mL; in experiment [3] (setting [4]), over 25 µg/mL.
On the same counts, the results for `O=C(O)c1cc(-c2c[nH]c3ccccc23)nc2c(Cl)cccc12` [Example 156] are over 25 µg/mL and over 25 µg/mL.
On the same counts, the results for `O=C(Nc1ccc(Cl)cc1C(F)(F)F)N1CCN(C(=O)c2cc(-c3c[nH]c4ccc(Br)cc34)nc3ccccc23)CC1` [Example 66] are over 25 µg/mL and over 25 µg/mL.
On to `NCc1ccc(CNC(=O)C2CC(c3c[nH]c4ccccc34)Nc3ccccc32)cc1` (stereo not shown) [Example 91], for which the MIC in experiment [2] (setting [4]) and in experiment [3] (setting [4]) was over 25 µg/mL each time.
For `NCc1ccc(CNC(=O)c2cc(-c3ccc4ccccc4c3)nc3ccccc23)cc1` [Example 87], the MIC in experiment [2] (setting [4]) and in experiment [3] (setting [4]) was under 25 µg/mL each time.
For the compound `NC1CCCCC1NC(=O)c1cc(-c2c[nH]c3ccc(Br)cc23)nc2ccccc12` (stereo not shown) [compound 10], the MIC in experiment [2] (setting [4]) and in experiment [3] (setting [4]) was under 25 µg/mL each time.
With `O=C(NC1CCOC1=O)c1cc(-c2c[nH]c3ccc(Br)cc23)nc2ccccc12` (stereo not shown) [Example 34], the MIC in experiment [2] (setting [4]) and in experiment [3] (setting [4]) was under 25 µg/mL in each case.
Consider `Cc1ccc2[nH]cc(-c3cc(C(=O)NCc4ccc(CN)cc4)c4ccccc4n3)c2c1` [Example 17], for which the MIC was under 25 µg/mL in experiment [2] (setting [4]) and over 25 µg/mL in experiment [3] (setting [4]).
On to `COc1ccc2[nH]cc(-c3ccc4ccccc4n3)c2c1` [Example 185], for which the results for the minimal inhibitory concentration (MIC) in experiment [2] (setting [4]) and in experiment [3] (setting [4]) were under 25 µg/mL and over 25 µg/mL, respectively.
As for `Fc1cccc2[nH]cc(-c3ccc4ccccc4n3)c12` [Example 182], the MIC in experiment [2] (setting [4]) and in experiment [3] (setting [4]) was over 25 µg/mL throughout.

The values are drawn from US6376670B1, “Quinoline-indole antimicrobial agents, uses and compositions related thereto” (Sepracor Inc., priority 1997, dated 2002).
